Laboratory results reported in patent CN108992440A, “去甲斑蝥素在制备治疗破骨细胞过度激活相关疾病药物中的应用” (priority 2018, dated 2018).

Experiments:
Assay type in all cases: cell-based, mouse
[1] = MTT assay of the effect of NCTD on viability of bone-marrow-derived macrophages; conditions: mouse, bone marrow macrophages; MTT, BMMs, 48 h; read-out: concentration from which BMM activity begins to be affected
BMM cells [BMMs] [2] = test: as above
osteoclasts [破骨细胞] [3] = test: TRAP staining: RANKL-induced osteoclast differentiation from BMMs; conditions: RANKL induction 5 days, 0, 1, 2.5, 5, 10 μM NCTD
osteoclasts [破骨细胞] [4] = test: TRAP staining: stage of osteoclast formation inhibited by NCTD; conditions: 5 μM NCTD
BMM cells [BMMs] [5] = test: Annexin V-FITC/PI flow cytometry: apoptosis of BMMs; conditions: BMMs, 0, 2.5, 5, 10 μM NCTD, 48 h
CTSK = test: Q-PCR of osteoclast marker gene: CTSK; conditions: RANKL 100 ng/ml, M-CSF 30 ng/ml, 5 days
CTR = test: Q-PCR of osteoclast marker gene: CTR; conditions: RANKL 100 ng/ml, M-CSF 30 ng/ml, 5 days
TRAP = test: Q-PCR of osteoclast marker gene: TRAP; conditions: RANKL 100 ng/ml, M-CSF 30 ng/ml, 5 days
NFATc1 = test: Q-PCR of osteoclast marker gene: NFATc1; conditions: RANKL 100 ng/ml, M-CSF 30 ng/ml, 5 days
c-Fos = test: Q-PCR of osteoclast marker gene: c-Fos; conditions: RANKL 100 ng/ml, M-CSF 30 ng/ml, 5 days
[6] = system: extracellular signal-regulated kinase (ERK) [细胞外信号调节激酶(ERK)]; test: Western blot: RANKL-stimulated ERK phosphorylation; conditions: BMMs, RANKL 15 min; 0, 2.5, 5, 10 μM NCTD
p38 kinase [p38激酶] = test: Western blot: RANKL-stimulated p38 phosphorylation; conditions: BMMs, RANKL 15 min; 0, 2.5, 5, 10 μM NCTD
[7] = system: c-Jun N-terminal kinase (JNK) [c-Jun氨基端激酶(JNK)]; test: Western blot: JNK (MAPK family); conditions: BMMs
IκBα = IκBα degradation (NF-κB signalling pathway)
[8] = pretreatment (12 h before RANKL)

For `O=C1OC(=O)C2C3CCC(O3)C12` (stereo not shown) [NCTD, 去甲斑蝥素], the MCC at 48 h [1] was 20 µM, the IC50 (BMM cells [BMMs] [2]; Mus musculus, Macrophage, MTT, BMMs, 48 h, 0-320 μM NCTD, GraphPad Prism, read-out: half-inhibitory concentration (IC50) on BMMs) was 59.7 µM and the “toxicity to BMM cells” value (BMM cells [BMMs] [2]; at 10 μM and below) was “无毒性作用”. For the same compound, the “osteoclast formation (osteoclast number and area)” value (osteoclasts [破骨细胞] [3]) was “能够明显抑制破骨细胞的生成,且呈剂量依赖性关系”, the “osteoclast number and area” value (osteoclasts [破骨细胞] [4]; early treatment (first 2 days of induction)) was “能够显著改变破骨细胞数量和面积” and the osteoclast area (osteoclasts [破骨细胞] [4]; late treatment (last 3 days of induction)) was “对破骨细胞面积没有明显影响”. For the same compound, the osteoclast formation (osteoclasts [破骨细胞] [4]; [8]) was “在一定程度上可抑制破骨细胞形成”, the “osteoclast number and size vs control” value (osteoclasts [破骨细胞] [4]; [8]) was “均有明显差异” and the “inhibition of osteoclast differentiation” value (osteoclasts [破骨细胞] [4]; pretreatment + whole-course treatment) was “对破骨细胞分化抑制最为明显”. For the same compound, the “inhibition of osteoclast differentiation” value (osteoclasts [破骨细胞] [4]; whole-course treatment (5 days)) was “对破骨细胞分化抑制最为明显”, the apoptosis (BMM cells [BMMs] [5]) was “不会引起细胞凋亡” and the CTSK expression (CTSK) was “浓度依赖地抑制”. For the same compound, the CTR expression (CTR) was “浓度依赖地抑制”, the TRAP expression (TRAP) was “浓度依赖地抑制” and the NFATc1 expression (NFATc1) was “浓度依赖地抑制”. For the same compound, the c-Fos expression (c-Fos) was “浓度依赖地抑制”, the ERK phosphorylation [6] was “明显受到抑制” and the p38 phosphorylation (p38 kinase [p38激酶]) was “明显受到抑制”. For the same compound, the “inhibition of JNK” value ([7]; RANKL 15 min, 0, 2.5, 5, 10 μM NCTD) was “没有明显抑制作用”, the JNK phosphorylation ([7]; RANKL-stimulated) was “没有影响” and the IκBα degradation (IκBα; BMMs, RANKL-stimulated) was “没有抑制IκBα的降解”. For the same compound, the “RANKL-activated NF-κB signalling pathway” value (IκBα; by IκBα degradation) was “没有明显影响”.
